Source: US8063042B2, “Heterocyclic compounds” (Hoffmann-La Roche Inc., priority 2007, dated 2011)

Target: T1, human chemokine receptor 2 isoform B (Homo sapiens, UniProt P41597)
T1 construct: host or cells: CHOK1-CCR2B-A5 (CHO-K1) cells
T1 sequence (P41597 1-360 isoform P41597-2): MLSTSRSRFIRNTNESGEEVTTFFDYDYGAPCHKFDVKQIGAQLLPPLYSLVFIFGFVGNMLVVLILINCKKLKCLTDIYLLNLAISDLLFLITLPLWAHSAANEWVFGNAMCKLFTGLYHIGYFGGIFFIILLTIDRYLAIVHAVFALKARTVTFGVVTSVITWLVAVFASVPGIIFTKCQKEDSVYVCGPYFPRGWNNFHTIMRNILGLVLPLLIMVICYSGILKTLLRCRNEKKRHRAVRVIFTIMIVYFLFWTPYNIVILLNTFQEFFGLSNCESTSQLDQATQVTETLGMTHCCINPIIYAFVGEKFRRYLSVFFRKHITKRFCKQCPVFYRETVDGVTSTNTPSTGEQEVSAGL
Test: Calcium mobilization assay
Assay type: cell-based
Conditions: Ca mobilisation assay for CCR2; CHOK1-CCR2B-A5 cells; antagonist activity against 20 nM MCP-1
Experimental: Calcium Mobilization Assay
CHOK1-CCR2B-A5 cells (from Euroscreen) stably overexpressing the human chemokine receptor 2 isoform B were cultured in Nutrient Hams F12 medium supplemented with 5% FBS, 100 U/ml penicillin, 100 μg/ml streptomycin, 400 μg/ml G418 and 5 μg/ml puromycin. For the assay cells were grown overnight in 384-well black clear flat bottom polystyrene plates (Costar) at 37° C. at 5% CO2. After washing with DMEM, 20 mM Hepes, 2.5 mM probenecid, 0.1% BSA (DMEM assay buffer) cells were loaded with 4 μM Fluo-4 in the same DMEM assay buffer for 2 hours at 30° C. Excess dye was removed and cells were washed with DMEM assay buffer. 384-well compound plates were prepared with DMEM assay buffer/0.5% DMSO with or without various concentrations of test compounds. Usually compounds were tested for agonist and antagonist activity.
Test compounds were added to the assay plate and agonist activity was monitored as fluorescence for 80 seconds with a FLIPR (488 nm excitation; 510-570 nm emission; Molecular Devices). After 20-30 min. of incubation at 30° C., 20 nM MCP-1 (R&D; Roche) was added and fluorescence was monitored again for 80 seconds. Increases in intracellular calcium are reported as maximum fluorescence after agonist exposure minus basal fluorescence before exposure. Antagonist activity is indicated as inhibitor concentration required for 50% inhibition of specific calcium increases.

Compound	IC50 [nM]
O=C(/C=C/c1ccc(Cl)c(Cl)c1)N1CCN(CCCN2CCCCC2)S(=O)(=O)C1 [Example 34, (E)-3-(3,4-Dichloro-phenyl)-1-[1,1-dioxo-2-(3-piperidin-1-yl-propyl)-[1,2,5]thiadiazinan-5-yl]-propenone]	202
CC1C(=O)N(CCCN2CCC3(CC3)[C@H](O)C2)CCN1C(=O)/C=C/c1ccc(Cl)c(F)c1 (stereo partly drawn) [Example 39, 4-[(E)-3-(4-Chloro-3-fluoro-phenyl)-acryloyl]-1-[3-((S)-4-hydroxy-6-aza-spiro[2,5]oct-6-yl)-propyl]-3-methyl-piperazin-2-one]	13.7

Continued by falling IC50, values first:

IC50 [nM]	Compound
307	O=C(/C=C/c1ccc(Cl)c(Cl)c1)N1CCN(CCCN2CCC(CO)C2)C(=O)C1 (centres unmarked) [Example 14, 4-[(E)-3-(3,4-Dichloro-phenyl)-acryloyl]-1-[3-(3-hydroxymethyl-pyrrolidin-1-yl)-propyl]-piperazin-2-one]
284	O=C(/C=C/c1ccc(Cl)c(Cl)c1)N1CCN(CCCN2CCC(O)CC2)C(=O)C1 [Example 11, 4-[(E)-3-(3,4-Dichloro-phenyl)-acryloyl]-1-[3-(4-hydroxy-piperidin-1-yl)-propyl]-piperazin-2-one]
76.5	CC1C(=O)N(CCCN2CCCC2)CCN1C(=O)/C=C/c1ccc(Cl)c(Cl)c1 (centres unmarked) [Example 15, 4-[(E)-3-(3,4-Dichloro-phenyl)-acryloyl]-3-methyl-1-(3-pyrrolidin-1-yl-propyl)-piperazin-2-one]
